The source of these data is ChEMBL document CHEMBL3044937, “Design, synthesis and acaricidal activity of novel strobilurin derivatives containing pyrimidine moieties” (2010).

What all share (assay type): functional
Assay [1] concerns Tetranychus cinnabarinus. As to the kind of experiment: Acaricidal activity against Tetranychus cinnabarinus (carmine spider mite) infected kidney bean leaf assessed as mortality at 40 mg/l measured after 48 hr in greenhouse conditions relative to control.
Assay [2] deals with Tetranychus cinnabarinus. Kind of assay: Acaricidal activity against Tetranychus cinnabarinus (carmine spider mite) infected kidney bean leaf assessed as mortality at 10 mg/l measured after 48 hr in greenhouse conditions relative to control.
Assay [3] has as its system Tetranychus cinnabarinus. As to the kind of experiment: Acaricidal activity against Tetranychus cinnabarinus (carmine spider mite) infected kidney bean plant assessed as mortality at 50 g a.i./ha measured after 3 days in field conditions relative to control. To be noted: 72 h.
For assay [4], the system named is Tetranychus cinnabarinus. Kind of assay: Acaricidal activity against Tetranychus cinnabarinus (carmine spider mite) infected kidney bean plant assessed as mortality at 100 g a.i./ha measured after 3 days in field conditions relative to control. To be noted: 72 h.
The subject of assay [5] is Tetranychus cinnabarinus. Kind of assay: Acaricidal activity against Tetranychus cinnabarinus (carmine spider mite) infected kidney bean plant assessed as mortality at 50 g a.i./ha measured after 21 days in field conditions relative to control. To be noted: 504 h.
Assay [6] has as its system Tetranychus cinnabarinus. As to the kind of experiment: Acaricidal activity against Tetranychus cinnabarinus (carmine spider mite) infected kidney bean plant assessed as mortality at 50 g a.i./ha measured after 14 days in field conditions relative to control. To be noted: 336 h.
For assay [7], the system named is Tetranychus cinnabarinus. Kind of assay: Acaricidal activity against Tetranychus cinnabarinus (carmine spider mite) infected kidney bean plant assessed as mortality at 100 g a.i./ha measured after 7 days in field conditions relative to control. Particulars: 168 h.
Assay [8] has as its system Tetranychus cinnabarinus. Kind of assay: Acaricidal activity against Tetranychus cinnabarinus (carmine spider mite) infected kidney bean plant assessed as mortality at 100 g a.i./ha measured after 14 days in field conditions relative to control. To be noted: 336 h.
The test system of assay [9] is Tetranychus cinnabarinus. Kind of assay: Acaricidal activity against Tetranychus cinnabarinus (carmine spider mite) infected kidney bean plant assessed as mortality at 100 g a.i./ha measured after 21 days in field conditions relative to control. Particulars: 504 h.
Assay [10] has as its system Tetranychus cinnabarinus. As to the kind of experiment: Acaricidal activity against Tetranychus cinnabarinus (carmine spider mite) infected kidney bean leaf assessed as mortality at 600 mg/l measured after 48 hr in greenhouse conditions relative to control.
The test system of assay [11] is Tetranychus cinnabarinus. Kind of assay: Acaricidal activity against Tetranychus cinnabarinus (carmine spider mite) infected kidney bean plant assessed as mortality at 50 g a.i./ha measured after 7 days in field conditions relative to control. Particulars: 168 h.
In assay [12] the test system is Tetranychus cinnabarinus. As to the kind of experiment: Acaricidal activity against Tetranychus cinnabarinus (carmine spider mite) infected kidney bean plant assessed as mortality at 200 g a.i./ha measured after 21 days in field conditions relative to control. To be noted: 504 h.
For assay [13], the system named is Tetranychus cinnabarinus. Kind of assay: Acaricidal activity against Tetranychus cinnabarinus (carmine spider mite) infected kidney bean plant assessed as mortality at 200 g a.i./ha measured after 14 days in field conditions relative to control. Particulars: 336 h.
For assay [14], the system named is Tetranychus cinnabarinus. Kind of assay: Acaricidal activity against Tetranychus cinnabarinus (carmine spider mite) infected kidney bean plant assessed as mortality at 200 g a.i./ha measured after 7 days in field conditions relative to control. Particulars: 168 h.
The subject of assay [15] is Tetranychus cinnabarinus. As to the kind of experiment: Acaricidal activity against Tetranychus cinnabarinus (carmine spider mite) infected kidney bean plant assessed as mortality at 200 g a.i./ha measured after 3 days in field conditions relative to control. To be noted: 72 h.

As to `CNc1nc(OCc2ccccc2/C(=C\OC)C(=O)OC)cc(C(F)(F)F)n1`, the mortality – broadly, the share of the test organisms that died – at 40 µg/mL in assay [1] was determined as 0%. For the same compound, the mortality at 10 µg/mL in assay [2] was 0%.
Regarding `CO/C=C(/C(=O)OC)c1ccccc1COc1cc(C(F)(F)F)nc(OC(C)C)n1`, the mortality at 40 µg/mL in assay [1] was determined as 100%. Besides, the mortality at 50 g/ha in assay [3] was 100%; in assay [5], 98.2%; in [6] it was 93.2%; in assay [11], 77.6%. Further, the mortality at 100 g/ha in assay [4] came to 100%; in [7], 88%; in assay [8], 90.4%; in [9], 97.9%. The mortality at 10 µg/mL in [2] was determined as 95%. In assay [10], the mortality at 600 µg/mL turned out to be 100%.
For the compound `CO/C=C(/C(=O)OC)c1ccccc1COc1cc(C2CC2)nc(Nc2ccccc2)n1`, the mortality at 40 µg/mL in [1] worked out at 0%. For the same compound, in [2], the mortality at 10 µg/mL was determined as 0%. Moreover, the mortality at 600 µg/mL in assay [10] was found to be 90%.
Regarding `CO/C=C(/C(=O)OC)c1ccccc1COc1cc(C(F)(F)F)nc(N(C)C)n1`, in assay [1], the mortality at 40 µg/mL worked out at 0%. Besides, the mortality at 10 µg/mL in [2] came out at 0%.
For `CNC(=O)/C(=N/OC)c1ccccc1COc1cc(C(F)(F)F)nc(Nc2ccccc2)n1`, in assay [1], the mortality at 40 µg/mL is 0%. Also, the mortality at 10 µg/mL in assay [2] stood at 0%. The mortality at 600 µg/mL in assay [10] was found to be 0%.
Take `CO/C=C(/C(=O)OC)c1ccccc1COc1cc(C(F)(F)F)nc(NC(C)C)n1`: the mortality at 40 µg/mL in assay [1] came out at 95%. Besides, in assay [2], the mortality at 10 µg/mL turned out to be 64%.
In the same order, the values of `CO/C=C(/C(=O)OC)c1ccccc1COc1cc(C(F)(F)F)nc(N2CCCCC2)n1` are 0% and 0%.
For `CO/C=C(/C(=O)OC)c1ccccc1COc1cc(C(F)(F)F)nc(Nc2ccccc2)n1`, in [1], the mortality at 40 µg/mL worked out at 100%. For the same compound, the mortality at 50 g/ha was 62.3% in assay [3], 57.5% in [5], 87.2% in assay [6] and 65.3% in assay [11]. Besides, the mortality at 100 g/ha in assay [4] amounted to 78.3%; in assay [7] it was 53.1%; in assay [8], 91.8%; in assay [9] it was 94.9%. The mortality at 10 µg/mL in assay [2] was 85%. The mortality at 200 g/ha in assay [12] was found to be 100%; in assay [13] it was 100%; in assay [14], 96.4%; in assay [15], 92.2%. Further, the mortality at 600 µg/mL in assay [10] is 100%.
For `CO/C=C(/C(=O)OC)c1ccccc1COc1cc(C(F)(F)F)nc(NC2CCCCC2)n1`, the mortality at 40 µg/mL in [1] worked out at 100%. For the same compound, the mortality at 10 µg/mL in [2] was 70%.
`CO/C=C(/C(=O)OC)c1ccccc1COc1nc(Nc2ccccc2)nc(C)c1C`: in assay [1], the mortality at 40 µg/mL amounted to 0%. Also, in assay [2], the mortality at 10 µg/mL is 0%. The mortality at 600 µg/mL in [10] was 0%.
With `CCNc1nc(OCc2ccccc2/C(=C\OC)C(=O)OC)cc(C(F)(F)F)n1`, the mortality at 40 µg/mL in assay [1] amounted to 0%. Besides, the mortality at 10 µg/mL in [2] came to 0%.
With `CNC(=O)N(OC)c1ccccc1COc1cc(C(F)(F)F)nc(Nc2ccccc2)n1`, the mortality at 40 µg/mL in assay [1] came out at 0%. The mortality at 10 µg/mL in assay [2] was 0%. Also, the mortality at 600 µg/mL in [10] worked out at 0%.
As for `CO/C=C(/C(=O)OC)c1ccccc1COc1cc(C(F)(F)F)nc(NCc2ccccc2Cl)n1`, in [1], the mortality at 40 µg/mL was 81%. Also, the mortality at 10 µg/mL in [2] came to 32%.
As for `CO/N=C(/C(=O)OC)c1ccccc1COc1cc(C(F)(F)F)nc(Nc2ccccc2)n1`, the mortality at 40 µg/mL in [1] turned out to be 0%. Also, in assay [2], the mortality at 10 µg/mL turned out to be 0%. In addition, the mortality at 600 µg/mL in assay [10] is 100%.
For `CO/C=C(/C(=O)OC)c1ccccc1COc1cc(C(F)(F)F)nc(N2CCOCC2)n1`, in assay [1], the mortality at 40 µg/mL amounted to 70%. The mortality at 10 µg/mL in [2] came to 0%.
In the same order, the values of `CO/C=C(/C(=O)OC)c1ccccc1COc1cc(C(F)(F)F)nc(NC2CC2)n1` are 0% and 0%.
For the compound `CCN(CC)c1nc(OCc2ccccc2/C(=C\OC)C(=O)OC)cc(C(F)(F)F)n1`, in [1], the mortality at 40 µg/mL is 65%. For the same compound, the mortality at 10 µg/mL in assay [2] is 21%.
As for `CO/C=C(/C(=O)OC)c1ccccc1COc1cc(C)nc(Nc2ccccc2)n1`, the mortality at 40 µg/mL in [1] was determined as 0%. Besides, in assay [2], the mortality at 10 µg/mL stood at 0%. Further, the mortality at 600 µg/mL in [10] stood at 90%.
As to `COC(=O)N(OC)c1ccccc1COc1cc(C(F)(F)F)nc(Nc2ccccc2)n1`, the mortality at 40 µg/mL in assay [1] came out at 0%. Also, the mortality at 10 µg/mL in assay [2] was 0%. Besides, the mortality at 600 µg/mL in assay [10] came to 0%.
For `CO/C=C(/C(=O)OC)c1ccccc1COc1cc(C(F)(F)F)nc(NCc2ccccc2)n1`, in assay [1], the mortality at 40 µg/mL came out at 65%. For the same compound, the mortality at 10 µg/mL in [2] came to 28%.
